From ChEMBL document CHEMBL1255512, “Pyrazolo[1,5-a]pyrimidine acetamides: 4-Phenyl alkyl ether derivatives as potent ligands for the 18 kDa translocator protein (TSPO)” (Bioorg Med Chem Lett, 2010)

Experiments:
[1] = biological target: Delta-type opioid receptor (Homo sapiens, UniProt P41143); assay: Inhibition of delta opioid receptor at 10 uM
[2] = biological target: 5-hydroxytryptamine receptor 3A (Homo sapiens) (UniProt P46098); assay: Inhibition of 5-HT3 receptor at 10 uM
[3] = biological target: 5-hydroxytryptamine receptor 2B (Homo sapiens, UniProt P41595); assay: Inhibition of 5-HT2B receptor
[4] = biological target: Alpha-1B adrenergic receptor (Homo sapiens, UniProt P35368); assay: Inhibition of Alpha-1B adrenergic receptor
Alpha-1B adrenergic receptor, sequence (P35368 whole entry): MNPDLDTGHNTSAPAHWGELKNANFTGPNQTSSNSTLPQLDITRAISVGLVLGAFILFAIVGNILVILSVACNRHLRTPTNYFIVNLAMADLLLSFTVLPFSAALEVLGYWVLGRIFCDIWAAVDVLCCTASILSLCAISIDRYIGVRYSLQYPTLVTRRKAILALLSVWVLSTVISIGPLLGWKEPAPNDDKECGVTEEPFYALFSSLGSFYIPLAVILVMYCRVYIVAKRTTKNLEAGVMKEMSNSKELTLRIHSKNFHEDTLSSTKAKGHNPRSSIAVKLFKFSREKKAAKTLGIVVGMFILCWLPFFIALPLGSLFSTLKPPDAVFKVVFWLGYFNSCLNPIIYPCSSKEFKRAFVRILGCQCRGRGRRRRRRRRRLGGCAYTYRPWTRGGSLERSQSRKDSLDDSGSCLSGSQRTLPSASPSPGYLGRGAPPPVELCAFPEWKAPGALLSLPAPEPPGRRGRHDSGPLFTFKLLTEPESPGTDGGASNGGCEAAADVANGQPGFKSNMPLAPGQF

Delta-type opioid receptor, sequence (P41143 whole entry): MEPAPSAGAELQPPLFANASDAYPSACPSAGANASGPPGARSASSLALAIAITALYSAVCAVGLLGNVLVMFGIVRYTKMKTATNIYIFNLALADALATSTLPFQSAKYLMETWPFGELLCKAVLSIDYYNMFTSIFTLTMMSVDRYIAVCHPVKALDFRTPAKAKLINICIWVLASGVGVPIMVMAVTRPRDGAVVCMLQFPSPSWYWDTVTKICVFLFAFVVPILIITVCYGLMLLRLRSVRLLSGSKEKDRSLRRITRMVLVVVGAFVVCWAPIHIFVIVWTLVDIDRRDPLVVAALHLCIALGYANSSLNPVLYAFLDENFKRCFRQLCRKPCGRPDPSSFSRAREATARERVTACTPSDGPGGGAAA
5-hydroxytryptamine receptor 3A (Homo sapiens), sequence (P46098 whole entry): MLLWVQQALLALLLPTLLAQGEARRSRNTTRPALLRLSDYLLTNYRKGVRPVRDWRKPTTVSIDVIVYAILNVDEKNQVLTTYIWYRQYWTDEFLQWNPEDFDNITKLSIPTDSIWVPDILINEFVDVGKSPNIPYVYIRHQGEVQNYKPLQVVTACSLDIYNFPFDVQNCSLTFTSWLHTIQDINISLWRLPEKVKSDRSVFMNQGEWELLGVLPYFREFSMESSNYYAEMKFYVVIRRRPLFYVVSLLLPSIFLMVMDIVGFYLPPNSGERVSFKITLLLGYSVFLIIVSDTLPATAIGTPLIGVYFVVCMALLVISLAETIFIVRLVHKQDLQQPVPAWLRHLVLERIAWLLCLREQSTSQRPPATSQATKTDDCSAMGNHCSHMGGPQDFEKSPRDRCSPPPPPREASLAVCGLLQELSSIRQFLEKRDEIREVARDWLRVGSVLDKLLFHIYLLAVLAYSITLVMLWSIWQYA
5-hydroxytryptamine receptor 2B, sequence (P41595 whole entry): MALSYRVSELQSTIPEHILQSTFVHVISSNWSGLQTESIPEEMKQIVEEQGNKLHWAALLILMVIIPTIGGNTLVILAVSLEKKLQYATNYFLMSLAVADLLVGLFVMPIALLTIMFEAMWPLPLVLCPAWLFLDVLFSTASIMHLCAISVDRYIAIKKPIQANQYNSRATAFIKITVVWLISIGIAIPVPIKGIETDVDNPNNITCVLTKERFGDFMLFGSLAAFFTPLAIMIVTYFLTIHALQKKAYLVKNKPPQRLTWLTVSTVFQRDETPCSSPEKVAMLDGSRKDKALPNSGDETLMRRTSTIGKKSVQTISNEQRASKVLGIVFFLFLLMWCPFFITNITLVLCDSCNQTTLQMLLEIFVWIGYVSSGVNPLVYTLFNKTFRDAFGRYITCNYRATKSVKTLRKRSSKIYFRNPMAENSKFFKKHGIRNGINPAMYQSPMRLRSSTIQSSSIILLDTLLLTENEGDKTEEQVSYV

SMILES | inhibition [1] [%] | inhibition [2] [%] | Ki [3] [µM] | Ki [4] [µM]
CCOc1ccc(-c2nn3c(C)cc(C)nc3c2CC(=O)N(CC)CC)cc1 | < 50 | < 50 |  | 
CCCCOc1ccc(-c2nn3c(C)cc(C)nc3c2CC(=O)N(CC)CC)cc1 |  |  | 8.36 | 
CCCOc1ccc(-c2nn3c(C)cc(C)nc3c2CC(=O)N(CC)CC)cc1 |  |  |  | > 10
C#CCOc1ccc(-c2nn3c(C)cc(C)nc3c2CC(=O)N(CC)CC)cc1 | < 50 | < 50 |  | 
